pIC50: −log10 of the molar value. Like-named read-outs stand apart in the source and are kept apart here.

The pIC50 is the negative decadic logarithm of the IC50, by convention in mol/L.

The target in the test is NSP14 (Severe acute respiratory syndrome coronavirus 2, UniProt P0DTD1). As to the kind of experiment: NSP14 MTase inhibition assay at 37° C. (MTase-Glo SAH detection). The test is classed as biochemical, SARS-CoV-2. The conditions noted are these: 0.3 nM NSP14, 2.5 μM SAM, 2.5 μM GpppA RNA, read-out: Nsp14 Mtase Inh. IC50.

Take `Cc1c(S(=O)(=O)c2ccc3[nH]ncc3c2)cc(C(=O)N[C@@H]2CCN(c3cnnc(Cl)c3)C2)n1C` [A.118]: the pIC50 (45 min at 37° C.) is greater than 9.82.

On to `Cc1c(S(=O)(=O)c2ccc3[nH]ncc3c2)cc(C(=O)NCc2ccn(C3CC3)n2)n1C` [B.168], for which the pIC50 (37° C.) is 6.76.

In the case of `Cc1c(S(=O)(=O)c2ccc3[nH]ncc3c2)cc(C(=O)N[C@H]2C[C@@H](N(C)c3ncc(F)cn3)C2)n1C` [A.98], for the setting “45 min at 37° C.”, the pIC50 is 9.41.

Turning to `Cc1c(S(=O)(=O)c2ccc3[nH]ncc3c2)cc(C(=O)NCc2c(F)ccc3c2N(C)C(=O)C3)n1C` [B.52], the pIC50 (37° C.) is 9.82.

`Cc1c(S(=O)(=O)c2cc(F)c3ncccc3c2)cc(C(=O)NCc2cccc3cnn(C)c23)n1C` [B.17]: under “37° C.”, the pIC50 is 7.38.

For `Cc1c(S(=O)(=O)c2ccc3[nH]ncc3c2)cc(C(=O)N[C@@H]2CCN(c3ccc(Cl)cn3)C2)n1C` [A.44], the pIC50 (45 min at 37° C.) is greater than 9.82.

Regarding `Cc1c(S(=O)(=O)c2ccc3[nH]nc(C#N)c3c2)cc(C(=O)NCc2cccc3cnn(C)c23)n1C` [B.29], the negative logarithm of the IC50 (pIC50) (37° C.) is 6.86.

On to `Cc1c(S(=O)(=O)c2ccc3occc3c2)cc(C(=O)NCc2c(F)ccc3occc23)n1C` [A.14], for which the pIC50 (45 min at 37° C.) was 8.11.

Turning to `Cc1cc(S(=O)(=O)c2cc(C(=O)NCc3c(F)ccc4occc34)n(C)c2C)cc2cn[nH]c12` [A.1, N-[(5-fluorobenzofuran-4-yl)methyl]-1,5-dimethyl-4-[(7-methyl-1H-indazol-5-yl)sulfonyl]pyrrole-2-carboxamide], for the setting “45 min at 37° C.”, the negative-log IC50 (pIC50) was 9.70.

With `Cc1c(S(=O)(=O)c2ccc3[nH]ncc3c2)cc(C(=O)N[C@@H]2CCN(c3ccc(C(F)(F)F)cc3)C2)n1C` [A.123], the pIC50 (45 min at 37° C.) is 8.07.

Consider `Cc1c(S(=O)(=O)c2ccc(Cl)cc2)cc(C(=O)NCc2cccc3cnn(C)c23)n1C` [A.11], for which the pIC50 (45 min at 37° C.) is 8.28.

Consider `Cc1c(S(=O)(=O)c2cc(C(F)F)c3[nH]ncc3c2)cc(C(=O)NCc2cccc3cnn(C4CC4)c23)n1C` [B.60], for which, where the note is “37° C.”, the pIC50 is 8.28.

For `Cc1c(S(=O)(=O)c2ccc3[nH]ncc3c2)cc(C(=O)N[C@H]2CCN(c3ncc(F)cn3)C2)n1C` [A.47], for the setting “45 min at 37° C.”, the pIC50 was 8.66.

In the case of `Cc1c(S(=O)(=O)c2ccc3[nH]ncc3c2)cc(C(=O)NCc2ccnn2C2CC2)n1C` [B.167], where the note is “37° C.”, the pIC50 was 8.11.

As to `Cc1c(S(=O)(=O)c2ccc3[nH]nc(F)c3c2)cc(C(=O)NCc2c(F)ccc3nnn(C4CC4)c23)n1C` [B.82], the pIC50 (37° C.) is greater than 9.82.

Consider `Cc1c(S(=O)(=O)c2ccc3c(cnn3C)c2)cc(C(=O)NCc2cccc3cnn(C)c23)n1C` [A.12], for which the pIC50 (45 min at 37° C.) was 8.25.

As to `O=C(O)CCn1ncc2ccc(F)c(CNC(=O)c3cc(S(=O)(=O)c4cc(Cl)c5[nH]ncc5c4)c4n3CCC4)c21` [B.151], the pIC50 (37° C.) is greater than 9.82.

Take `Cc1c(S(=O)(=O)c2ccc3c(c2)CNC3)cc(C(=O)NCc2cccc3cnn(C)c23)n1C` [B.10]: the pIC50 (37° C.) was 6.95.

For the compound `Cc1ncoc1CNC(=O)c1cc(S(=O)(=O)c2ccc3[nH]ncc3c2)c(C)n1C` [B.150], the pIC50 (37° C.) was 7.85.

As to `Cc1c(S(=O)(=O)c2ccc3c(cnn3C)c2)cc(C(=O)NCc2cccnc2N2CCC(C(=O)O)C2)n1C` (centres unmarked) [B.47], for the setting “37° C.”, the pIC50 is 8.77.

Consider `Cc1cc(S(=O)(=O)c2cc(C(=O)NCc3c(F)ccc4cnn(C5CC5)c34)n(C)c2C)cc2cn[nH]c12` [B.28], for which, under “37° C.”, the pIC50 was 9.62.

As for `COc1cnc(N2CC[C@@H](NC(=O)c3cc(S(=O)(=O)c4ccc5[nH]ncc5c4)c(C)n3C)C2)cn1` [A.113], the pIC50 (45 min at 37° C.) is greater than 9.82.

As to `Cc1c(S(=O)(=O)c2ccc3[nH]ncc3c2)cc(C(=O)NCc2[nH]c(=O)ccc2F)n1C` [B.189], where the note is “37° C.”, the pIC50 was 9.43.

As to `Cc1c(S(=O)(=O)c2ccc(C3CC3)cc2)cc(C(=O)NCc2cccc3cnn(C)c23)n1C` [B.7], the pIC50 (37° C.) is 6.94.

Turning to `Cc1c(S(=O)(=O)c2ccc3[nH]ncc3c2)cc(C(=O)N[C@@H]2CCN(c3ccc(F)cc3)C2)n1C` [A.81], the pIC50 (45 min at 37° C.) is 9.24.

Consider `Cc1cc(CNC(=O)c2cc(S(=O)(=O)c3ccc4[nH]ncc4c3)c(C)n2C)n(C)n1` [B.147], for which the pIC50 (37° C.) was 6.84.

Source of the values: patent US20260226034A1 (The Rockefeller University, priority 2023, published 2026).
